This note sets out measurements from patent US20250082656A1, “DOSAGE REGIMENS FOR TREATMENT OF DENGUE INFECTION” (Atea Pharmaceuticals, Inc., priority 2022, published 2025).

Bounds are passed on as bounds.

Data set [1] relates to DENV-2. In words: CPE (MTT) assay, DENV-2 in human PBMCs and BHK-21 cells. The format is cell-based, Dengue virus.
Data set [2] can be described thus: Cytotoxicity in H1-HeLa cells. Type of data set: cell-based. To be noted: human, Table 2, H1-HeLa. On the procedure:
To assess the antiviral specificity of Compound 1 (AT-281), serial dilutions were incubated with various host cell lines infected with a panel of DNA and RNA viruses other than flaviviruses. The activity of Compound 1 (AT-281) was measured in infected cells using the neutral red assay to determine the effective concentration required to inhibit viral replication 50% (EC50) (described in Example 3) and the threshold concentration required to obtain a perceptible effect on 50% of the cells incubated without virus (CC50). Compound 1 (AT-281) had no activity against the DNA viruses tested and was only weakly or not active against several RNA viruses (Table 2).

Data set [3] relates to DENV-1. In words: Antiviral assay with FC read-out, DENV-1. Particulars: Dengue virus, DENV1; DENV-1 WP74, Huh-7, FC read-out. Type of data set: cell-based.
The target of data set [4] is DENV2 RdRp domain (Dengue virus type 2, UniProt P14340). Description: Thermal shift assay, DENV2 RdRp domain. To be noted: read-out: ΔTM.
Data set [5] can be described thus: In vivo formation of AT-9010 in PBMCs, monkeys. Also noted: species or system cynomolgus monkeys. To be noted: single oral Compound 2 equivalent to 55 mg/kg Compound 1, 12 h. On the procedure:
Monkeys were given an oral dose of Compound 2 (AT-752) equivalent to Compound 1 (AT-281) at 55 mg/kg and blood collected at 12, 24 and 48 h. […] Mouse PBMCs were pooled from 3 animals per time point; Rat and monkey data expressed as mean+/−SD (n=2-3 per time point). […] The experimental procedure is provided in Example 15.
Male non-naïve cynomolgus monkeys (Hainan Jingang Laboratory Animal Co. Ltd., China), at least 2 kg body weight, were individually housed during the study in stainless steel mesh cages, provided ad libitum access to RO water, fed twice daily (except on the day of dosing when they were fed once) with ˜60 g Certified Monkey Diet each feed (Beijing Vital Keao Feed Co., Ltd., Beijing, China) and given daily treats of fresh fruit. They (n=5) were administered a dose of Compound 2 (AT-752) at 300 mg/kg in 40% PEG400, 10% solutol HS15, 50% 100 mM citrate buffer, pH 4.5 (v/v) by oral gavage, and blood samples (˜0.5 mL) were collected at 1, 2, 4, 8, 12 and 24 h post dose. Plasma was separated at each time point for pharmacokinetics, and stored at −70° C. […]
Pharmacokinetic measurements for FIGS. 11, 12, 13, 14, and 15 were analyzed using LC-MS/MS according to the protocol described herein. […]

In data set [6] the test system is DENV3 RdRp domain. Description: Thermal shift assay, DENV3 RdRp domain. Particulars: RdRp domain DENV3, 100 μM compound.
The target of data set [7] is DENV2 MTase domain (Dengue virus type 2, UniProt P14340). Description: Thermal shift assay, DENV2 MTase domain. Particulars: read-out: ΔTM.

`CNc1nc(N)nc2c1ncn2[C@@H]1O[C@H](CO[P@](=O)(N[C@@H](C)C(=O)OC(C)C)Oc2ccccc2)[C@@H](O)[C@@]1(C)F` [Compound 1, isopropyl ((R)-(((2R,3R,4R,5R)-5-(2-amino-6-(methylamino)-9H-purin-9-yl)-4-fluoro-3-hydroxy-4-methyltetrahydrofuran-2-yl)methoxy)(phenoxy)phosphoryl)-L-alaninate]: the EC50 (in general, the concentration giving half of the maximal effect) in data set [1] (DENV-2 clinical isolate, BHK-21, CPE) was determined as 1050 nM; in data set [1] (Dengue virus, DENV2, BHK-21, DENV-2 NGC, BHK-21, CPE read-out), 3820 nM; in data set [3], 150 nM. In addition, the CC50 – broadly, the concentration giving 50% cytotoxicity – in data set [2] was > 100000 nM.
Turning to `C[C@@]1(F)[C@H](O)[C@@H](COP(=O)(O)OP(=O)(O)OP(=O)(O)O)O[C@H]1n1cnc2c(=O)[nH]c(N)nc21` [Compound 5], the ΔTm (commonly the change in melting temperature against a reference sample) at 100 µM in data set [4] worked out at 3.8 ± 0.1 °C; in data set [7], 4 ± 0.1 °C. Also, the “concentration of AT-9010 in PBMCs” value in data set [5] came to 0.070±0.046 pmol/10^6 cells. Besides, in data set [6], the ΔTM worked out at 3.2 ± 0.1 °C.
